# Measurements reported in patent US20030176483A1, “Topical synergistic microbicide” (priority 2002, published 2003).
# Assays:
# HSV-1 (strain F) = assay: Inactivation of HSV-1 by pre-mixing with drug, plaque reduction assay; type: cell-based, herpes simplex virus; settings: concentration 0.005%, pre-mixing for 1 h
# Description: (§1) HSV strains G (HSV-2) and F (HSV-1) were used in the experiments. A HSV susceptible cell line, Vero cells (African green monkey kidney cell), was used in the virus yield reduction assays. The culture medium for Vero cells was 5% minimum essential medium (MEM; GIBCO/BRL) supplemented with 5% fetal bovine serum, 100 U/ml penicillin and 100 μg/ml streptomycin).
# (§2) Confluent cells were washed with PBS and subsequently infected with HSV for 1 h at 37° C. After viral inoculum was removed, the infected cells were washed with PBS and overlaid with 0.5% methylcellulose in culture medium. Cells were incubated at 37° C. for 2 days for HSV-2 infection and 3 days for HSV-1. When plaque size was adequate, cells were fixed with 10% formalin for […]. Monolayers were subsequently stained with 0.5% crystal violet for 10 min, and dye was removed by washing with tap water.
# (§3) All data were generated from duplicate or triplicate experiments. Effects of compounds at varying concentrations were expressed as % of control (the mean plaque counts in drug treated wells/the mean plaque counts in control wells).
# (§4) HSV G and F strains were diluted to 200 pfu/ml with 5% MEM, respectively. […] Equal volumes of diluted virus and drugs were mixed and incubated at 37° C. water-bath for 1 h. One ml of the mixture was then used to infect confluent Vero cells in 6-well plates at 37° C. for 1 h. […]
# HSV-2 (strain G) = assay: Inactivation of HSV-2 by pre-mixing with drug, plaque reduction assay; type: cell-based, herpes simplex virus; settings: concentration 0.005%, pre-mixing for 1 h
# Description: as §1, §2, §3, §4
# Vero cells [1] = assay: Cytotoxicity, neutral red uptake assay; type: cell-based, African green monkey; settings: after 2 days' incubation, data not shown
# Description: Culture medium was removed from confluent Vero cells in 24-well plates. The cells were then washed once with PBS. […] Cells were incubated at 37° C. for 1 h, 6 h, 2 and 3 days. At each time point, the medium was removed and cells washed with PBS. 500 μl of 0.01% neutral red (in PBS) was added to each well, and the samples were incubated at 37° C. for 30 min. The dye was then removed and the cells washed×2 with 1 ml PBS per well. The dye was extracted by addition of 500 μl of 50% ethanol/1% glacial acetic acid in PBS to each well and incubated at room temperature for 15 min with gentle shaking at 120-150 rpm. 200 μl extracted dye from each well was put into 96-well plate and the absorbance at 550 nm was read on an ELISA reader.
# [2] = test system: HSV-2 thymidine kinase mutant Delta 333; assay: Inactivation of drug-resistant HSV-2 TK mutant, plaque reduction assay; type: cell-based, herpes simplex virus; settings: 37° C. for 1 h, concentration not given
# Vero cells [3] = assay: Cell death seen in the HSV inactivation plaque assays; type: cell-based, African green monkey; settings: concentration 0.005%
# Description: HSV G and F strains were diluted to 200 pfu/ml with 5% MEM, respectively. […] Equal volumes of diluted virus and drugs were mixed and incubated at 37° C. water-bath for 1 h. One ml of the mixture was then used to infect confluent Vero cells in 6-well plates at 37° C. for 1 h. After infection, viral inoculum was removed and the cells washed with PBS. The cells were subsequently overlaid with 1.5 ml of 0.5% methylcellullose (diluted from 1% stock with 2×culture medium) for plaque assay.
structure (smiles),measurement,setting,value
CCCCCCCCCCCCOS(=O)(=O)[O-].[Na+] [SDS],inactivation of HSV-1,HSV-1 (strain F),effective
same,inactivation of HSV-2,HSV-2 (strain G),effective
same,CC50 (cytotoxic concentration giving 50% of cell death),Vero cells [1],approximately 0.005%
same,inactivation of delta 333,[2],capable of inactivating
same,cell death,Vero cells [3],50%
